In the assay the test system is CD8+ T cells in PBMCs of COVID-19 patients. The class given is cell-based, human.

Consider YFQPRTFLL [YLQ mutant], for which the “wild type tetramer-positive CD8+ T cells after expansion with mutant versus wild type peptide (in words)” value is listed as “reduced numbers of YLQ tetramer positive cells”.

(Values after article PMC8224398, “SARS-CoV-2 mutations in MHC-I-restricted epitopes evade CD8^+ T cell responses” (Science Immunology, 2021).)
